Laboratory results reported in publication PMC8359193, “Summary of reference chemicals evaluated by the fish short‐term reproduction assay, OECD TG229, using Japanese Medaka, Oryzias latipes” (Journal of Applied Toxicology, 2021).
Entries after “also recorded” stand apart in the source; their conditions may differ.

How the values were obtained:
medaka Esr1 (mEsr1) = biological target: T1, medaka Esr1 (mEsr1) (Oryzias latipes, UniProt P50241); test: Medaka Esr1 reporter gene assay (RGA), antagonist assay with 1 nM E2, HEK293 cells; type: cell-based, Japanese medaka (Oryzias latipes)
T1 construct: expressed in transfected cells; host or cells: HEK293 (human embryonic kidney cells), transient transfection with FuGENE HD
T1 sequence (P50241 1-620): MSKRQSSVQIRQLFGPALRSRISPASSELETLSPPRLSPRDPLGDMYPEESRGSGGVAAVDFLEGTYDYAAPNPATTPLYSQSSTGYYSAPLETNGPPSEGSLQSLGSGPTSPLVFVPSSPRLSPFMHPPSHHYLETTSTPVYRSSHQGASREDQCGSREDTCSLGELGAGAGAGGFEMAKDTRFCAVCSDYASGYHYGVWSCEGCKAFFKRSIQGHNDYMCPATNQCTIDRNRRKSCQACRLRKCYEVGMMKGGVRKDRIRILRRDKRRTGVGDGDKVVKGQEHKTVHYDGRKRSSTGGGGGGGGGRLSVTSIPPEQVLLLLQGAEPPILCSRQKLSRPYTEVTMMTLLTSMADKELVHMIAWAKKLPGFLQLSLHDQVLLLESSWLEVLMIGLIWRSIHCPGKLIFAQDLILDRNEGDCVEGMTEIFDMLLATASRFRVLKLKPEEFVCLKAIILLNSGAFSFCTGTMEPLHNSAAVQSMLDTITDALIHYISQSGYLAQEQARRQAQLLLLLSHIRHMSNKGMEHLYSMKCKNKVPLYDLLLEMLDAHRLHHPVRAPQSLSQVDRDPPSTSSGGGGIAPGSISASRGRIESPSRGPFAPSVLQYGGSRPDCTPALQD
Description: To support interpretation of the biological effects observed in the FSTRA studies, in vitro RGAs using medaka Esr1 (mEsr1) and medaka ARβ (mARβ) were performed for the 16 test chemicals. In the present study, Esr1 and ARβ, which are ancestral subtypes among Esrs and ARs in Japanese medaka, were selected based on the phylogenetical analyses of Esr and AR with each receptor RGAs (Ogino et al., [2016], [2018]; Tohyama et al., [2015]).
The mEsr1 RGA consisting of agonist and antagonist assays were performed according to the methods previously reported (Katsu et al., [2010]; Lange et al., [2012]; Miyagawa et al., [2014]). Briefly, human embryonic kidney cells 293 (HEK293), precultured, were seeded in 96‐well plates at 15,000 cells/well with 200 μl of culture medium, phenol‐red‐free Dulbecco's Modified Eagle's medium (ThermoFisher Scientific K.K., Tokyo, Japan) supplemented with 2‐mM L‐glutamine and 10% charcoal/dextran‐treated fetal bovine serum (Hyclone, UT, USA), and then incubated for 24 h in 5% CO2 at 37°C. After the 24‐h incubation, 20 μl of test medium containing 40 ng of medaka Esr1/pcDNA3.1, 80 ng of ERE‐TK‐Luc, and 20 ng of pRL‐TK‐Rlu and 1.2 μL of transfection reagent FuGENE HD (Promega, WI, USA) were added into each well. The assay plates were incubated for another 4 h in order to transfect the three vectors into the HEK293 cells. After the vectors were successfully transfected, in agonist assay, 24 μl of concentrated test chemical solution was applied to the test medium in the plate wells. […] After chemical treatment for 40 h, luciferase activity of the cells was measured, and the promoter activity was calculated as firefly (Photinus pyralis)‐/sea pansy (Renilla reniformis)‐luciferase activity in each well. The luciferase activities were quantified by a chemiluminescence assay with Dual‐Luciferase Reporter Assay System (Promega) in accordance with the manufacturer's instructions, and luminescence intensity of firefly and sea pansy luciferin was measured using a luminometer, TriStar LB941 (Berthold Technology, Oak Ridge, TN, USA).
Effect concentrations, that is, EC50 (a half maximal effective concentration) in the agonist assay and IC50 (a half maximal inhibitory concentration) in the antagonist assay, were estimated by nonlinear curve fitting (e.g., three parameters logistic regression curve) using GraphPad Prism (GraphPad Software Inc., La Jolla, CA, USA).

[1] = tested on: Japanese medaka (Oryzias latipes); test: Fish short-term reproduction assay (FSTRA, OECD TG229), 21-day flow-through exposure; conditions: for GSI Female / HSI Female / Length Female / Weight Female / GSI Male / HSI Male / Length Male / Weight Male: at completion of exposure; for Fertility rate (%) / Mortality (%) Female / Mortality (%) Male / Number of fertilized eggs / Number of total eggs / SSC Female / SSC Male / VTG (ng/mg of liver) Female / VTG (ng/mg of liver) Male: 21 days
Description: The experimental studies on the FSTRA for the 16 chemicals were conducted in two laboratories in Japan, the National Institute for Environmental Studies (NIES, Lab‐1) and the Institute of Environmental Ecology, IDEA Consultants Inc. (Lab‐2), in accordance with OECD TG229 (OECD, [2012a]) (Table 1).
The NIES‐R strain of Japanese medaka (O. latipes), one of the orange‐red varieties, was used in all the 16 chemical studies. For the studies, healthy and mature male and female medakas at 16 ± 2 weeks old were selected from a single‐stock population, which were bred within the test facilities. The test fish were maintained in conditions similar to the assay for at least 7 days, and spawning status was checked during the acclimation period. On the day the chemical exposure commenced, to ensure balanced distribution of test fish between the treatment groups for the reproductive status of the fish, the replicate vessels (fish tanks), with each containing three male and female medaka, were distributed to each treatment and control group, for example, by a randomized block design based on the number of fertilized eggs laid in the last 5–7 days during the acclimation, in each assay.
The water solubility of the test chemical was also taken into consideration when deciding the highest test concentration. To set the lower concentrations, a spacing factor ranging between two and five was used. All assays included a dilution water control (DWC).
Test solutions at the selected concentrations were prepared by diluting a stock solution, which was prepared by an adequate method depending on the physicochemical properties of the test chemicals, for example, by simply mixing the test chemical in dilution water by stirring and/or sonicating for an appropriate time or by using a solid–liquid saturator. In the two laboratories, flow‐through exposure systems, in which a series of test solutions at the target concentrations can be continuously prepared and delivered to test vessels at controlled flow rates (Haselman et al., [2016]; Watanabe et al., [2017]), were used for the exposure experiments.
In the FSTRA, three mature adult males and females in a test vessel were exposed together to the test chemicals in flow‐through condition for 3 weeks. In all the assays, each treatment group, including the DWC group, contained four replicate tanks. During the exposure period, the fish were fed a sufficient amount of live brine shrimp nauplii (newly hatched Artemia sp.) for daily spawning ad libitum. Fecal material in the tanks was appropriately removed by siphoning after feeding. Water temperature of test solutions was recorded for at least one vessel in each treatment and control group every day and for all vessels at least once a week. Furthermore, dissolved oxygen and pH of test solutions were measured for all test vessels at least once a week. Mortality and abnormal behavior and appearance in the fish exposed to test chemicals were daily observed, and any fish that died were removed from the tank as soon as possible. To assess the reproductive status, all eggs females spawned were collected every day. At the completion of the chemical exposure, surviving fish in each tank were sampled.
The eggs females released on the bottom of the tank were collected by siphoning, and the egg clutches still on female abdomen were carefully picked from the body of the females captured using a small net. All the eggs collected were microscopically observed and separately counted for fertilized and unfertilized.

CCCN(CCOc1c(Cl)cc(Cl)cc1Cl)C(=O)n1ccnc1 [PCL, Prochloraz]
IC50 (medaka Esr1 (mEsr1)): > 10 µM | effect on fertility rate, in words ([1]; 21-day exposure): significant decrease; also recorded: significant reduction | GSI Female ([1]; measured conc. 20.6 μg/L): 10.2% | HSI Female ([1]; measured conc. 20.6 μg/L): 4.2% | Length Female ([1]; measured conc. 20.6 μg/L): 35.0 mm | Weight Female ([1]; measured conc. 20.6 μg/L): 547 mg | GSI Female ([1]; measured conc. 44.9 μg/L): 11.1% | HSI Female ([1]; measured conc. 44.9 μg/L): 4.5% | Length Female ([1]; measured conc. 44.9 μg/L): 36.5 mm | Weight Female ([1]; measured conc. 44.9 μg/L): 591 mg | LOEC for decrease of VTG in females ([1]; hepatic VTG, 21-day exposure, measured conc.): 44.9 µg/L | GSI Male ([1]; measured conc. 20.6 μg/L): 1.26% | HSI Male ([1]; measured conc. 20.6 μg/L): 1.7% | Length Male ([1]; measured conc. 20.6 μg/L): 34.4 mm | Weight Male ([1]; measured conc. 20.6 μg/L): 408 mg | GSI Male ([1]; measured conc. 44.9 μg/L): 1.16% | HSI Male ([1]; measured conc. 44.9 μg/L): 1.7% | Length Male ([1]; measured conc. 44.9 μg/L): 34.3 mm | Weight Male ([1]; measured conc. 44.9 μg/L): 415 mg | Fertility rate (%) ([1]; measured conc. 20.6 μg/L): 94% | Mortality (%) Female ([1]; measured conc. 20.6 μg/L): 0% | Mortality (%) Male ([1]; measured conc. 20.6 μg/L): 0% | Number of fertilized eggs ([1]; measured conc. 20.6 μg/L): 37 | Number of total eggs ([1]; measured conc. 20.6 μg/L): 39 ± 4.5 /female/day | SSC Female ([1]; measured conc. 20.6 μg/L): 0 ± 0 | SSC Male ([1]; measured conc. 20.6 μg/L): 103 ± 15 | VTG (ng/mg of liver) Female ([1]; measured conc. 20.6 μg/L): 289 ± 57 ng/mg of liver | VTG (ng/mg of liver) Male ([1]; measured conc. 20.6 μg/L): 2.6 ± 2.0 ng/mg of liver | Fertility rate (%) ([1]; measured conc. 44.9 μg/L): 84% | Mortality (%) Female ([1]; measured conc. 44.9 μg/L): 0% | Mortality (%) Male ([1]; measured conc. 44.9 μg/L): 0% | Number of fertilized eggs ([1]; measured conc. 44.9 μg/L): 28 | Number of total eggs ([1]; measured conc. 44.9 μg/L): 34 ± 5.5 /female/day | SSC Female ([1]; measured conc. 44.9 μg/L): 0 ± 0 | SSC Male ([1]; measured conc. 44.9 μg/L): 93 ± 13 | VTG (ng/mg of liver) Female ([1]; measured conc. 44.9 μg/L): 173 ± 53 ng/mg of liver | VTG (ng/mg of liver) Male ([1]; measured conc. 44.9 μg/L): 1.2 ± 1.2 ng/mg of liver | effect on fecundity (number of total eggs), in words ([1]; within the test concentrations, 21-day exposure): No effect
